# System: Promega Mid-Range Molecular Weight Markers
# Test: Detection of proteins during SDS-PAGE electrophoresis (dye in cathode buffer)
# Excerpt: Solutions for the formation and electrophoresis of proteins were made according to the instructions given in Experiments in Gene Fusions, Silhavy, Berman, Enquist, Cold Spring Harbor Laboratory Press, Cold Spring Harbor, N.Y. with the following changes:
# a) The SDS concentration in the upper and lower gel buffer components were reduced to result in a 0.05% final SDS concentration in the gel. Thus, the composition of 4× upper gel buffer was 0.5M Tris-HCl, pH 6.8, 0.2 % (w/v) sodium dodecylsulfate (SDS) and the composition of 4× lower gel buffer was 1.5M Tris-HCl, pHS.8, 0.2 % (w/v) SDS.
# b) The SDS concentration in the electrophoretic (electrode) buffer was reduced to 0.04% final concentration. Thus, 4× electrode (anode or cathode) buffer was made by dissolving 60 g Tris base, 288 g glycine, and 8 g SDS dissolved in water and then diluting with water to 5 liters. Another name sometimes used for "electrode" buffer is "running" buffer.
# c) The SDS concentration in the 2× sample buffer was reduced to 1% final SDS concentration. Thus, 2× sample buffer was made by mixing 0.5 ml of betamercaptoethanol, 0.25 ml of 0.1% (w/v) bromophenol blue, 1 ml of 10 % (w/v) SDS, 3 ml of water, and 5.3 ml of 2× glycerol buffer. 2× glycerol buffer is made by mixing 12.5 ml of 4× upper gel buffer and 20 ml of glycerol and diluting the resulting solution to 60 ml with water. Another name sometimes used for "sample" buffer is "loading" buffer.
# d) Electrophoresis was performed using a BIO-RAD miniprotein II electrophoresis apparatus and gels were poured such that i cm of space was present between the bottom of the loading wells and the separating gel.
# In other electrophoresis experiments reported in this application, the buffers used were as described above in this example. In some cases, as in this example, where preparation of a solution of dye in 150 ml of cathode (or electrode) buffer is specified, an amount of stock solution of a dye was first added to 150 ml of cathode buffer and then 125 ml of the resulting solution was used to fill the cathode buffer chamber (which holds 125 ml) in the electrophoresis apparatus. In other cases, where addition of stock solution of dye to the cathode buffer is specified without reference to the volume of cathode buffer or with reference to such volume being "125 ml," the stock solution was added directly to 125 ml of cathode buffer already in the cathode buffer chamber.
# The samples used were prepared with Promega Mid-Range Molecular Weight Markers solution (Promega Corp., Madison, Wis., USA, Catalog No. V5231) (referred to hereinafter as "Promega Mid-Range [Molecular Weight] Markers or Standards") diluted into Sample Buffer. […]
smiles,measurement,setting,value
CCCCCCCC(=O)N(c1ccc(OCC)cc1)c1ccc(C(=C2C=CC(=[N+](CC)Cc3cccc(S(=O)(=O)[O-])c3)C=C2)c2ccc(N(CC)Cc3cccc(S(=O)(=O)O)c3)cc2)cc1 [Promega Green 1],lowest protein amount per band visible while the gel was running,"10% SDS-PAGE, dye in cathode buffer, white plastic card behind gel",1.0 µg
same,lowest protein amount per band visible by the end of the run (most of the bands),essentially clear background,0.5 µg
